Measurements from patent US4472304A, “(Amido)N-substituted bleomycins, salts thereof and process for preparation thereof” (Nippon Kayaku Kabushiki Kaisha, priority 1981, dated 1984).

Assays:
Bacillus subtilis = assay: Antimicrobial activity against Bacillus subtilis (agar plate-cylinder); format: cell-based; conditions: standard bleomycin A2 (copper-free) assumed 1,000 mcg potency/mg
Protocol: (§1) 2. ANT[…] MYC[…] ATCC 607 AND BACILLUS SUBTILIS
(§2) The antimicrobial activity was tested against the captioned test organisms by the method of agar plate-cylinder. The activity was recorded on the assumption that the activity of standard sample of bleomycin A2 (copper-free form) is 1,000 mcg poteney/mg.

pulmonary fibrosis = assay: Pulmonary toxicity (pulmonary fibrosis) in mice; conditions: for Incidence: Number of mice with pulmonary fibrosis (%) / Incidence: Number of mice with pulmonary fibrosis / Grade: Total score of pulmonary fibrosis/total number of samples / Grade: Total score of pulmonary fibrosis/total number of samples (%): ICR mice, 5 mg/kg i.p. once a day for 10 days; for Incidence: Number of mice with pulmonary fibrosis (%) / Incidence: Number of mice with pulmonary fibrosis: 5 weeks observation; for Incidence: Number of mice with pulmonary fibrosis: mice with fibrosis/total; for Grade: Total score of pulmonary fibrosis/total number of samples / Grade: Total score of pulmonary fibrosis/total number of samples (%): points 0, 1, 2, 4, 6; for Ratio (by comparison with "Bleomycin Complex"): versus Bleomycin Complex
[1] = test system: Mycobacterium smegmatis ATCC 607; assay: Antimicrobial activity against Mycobacterium smegmatis ATCC 607 (agar plate-cylinder); format: cell-based; conditions: standard bleomycin A2 (copper-free) assumed 1,000 mcg potency/mg
Protocol: as §1, §2

In the case of `CCCCNCCCN(C)CCCNC(=O)c1csc(-c2csc(CCNC(=O)C(NC(=O)C(C)C(O)C(C)NC(=O)C(NC(=O)c3nc(C(CC(N)=O)NCC(N)C(=O)NCCCN(C)CCCNCCCC)nc(N)c3C)C(OC3OC(CO)C(O)C(O)C3OC3OC(CO)C(O)C(OC(N)=O)C3O)c3cnc[nH]3)C(C)O)n2)n1` (centres unmarked) [Compound 38, 3-[N--methyl-N--(3-n-butylaminopropyl)amino]propylamino-(amido)N--{3-[N--methyl-N--(3-n-butylaminopropyl)amino]-propyl}-BLM], the “Antimicrobial potency of Cu-free compound against Bacillus subtilis” value (Bacillus subtilis) is reported as 6600 mcg potency/mg, the “Incidence: Number of mice with pulmonary fibrosis (%)” value (“Incidence: Number of mice … (%)” for short) (pulmonary fibrosis) is reported as 71% and the “Incidence: Number of mice with pulmonary fibrosis” value (pulmonary fibrosis) is reported as 5/7. For the same compound, the “Grade: Total score of pulmonary fibrosis/total number of samples” value (pulmonary fibrosis) was 7/21, the “Grade: Total score of pulmonary fibrosis/total number of samples (%)” value (pulmonary fibrosis) was 33% and the “Ratio (by comparison with "Bleomycin Complex")” value (“Ratio” for short) (pulmonary fibrosis) was 0.32. For the same compound, the “Antimicrobial potency of Cu-free compound against Mycobacterium smegmatis ATCC 607” value [1] was 5100 mcg potency/mg.
In the case of `Cc1c(N)nc(C(CC(N)=O)NCC(N)C(=O)NCCCNC(C)c2ccccc2)nc1C(=O)NC(C(=O)NC(C)C(O)C(C)C(=O)NC(C(=O)NCCc1nc(-c2nc(C(=O)NCCCN(C)CCCNCc3ccc(Cl)cc3)cs2)cs1)C(C)O)C(OC1OC(CO)C(O)C(O)C1OC1OC(CO)C(O)C(OC(N)=O)C1O)c1cnc[nH]1` [Compound 39, 3-{N--methyl-N--[3-(p-chlorobenzyl)aminopropyl]amino}-propylamino-(amino)N--[3-(S)-1'-phenylethyl)aminopropyl]-BLM], the “Antimicrobial potency of Cu-free compound against Bacillus subtilis” value (Bacillus subtilis) is reported as 2590 mcg potency/mg, the “Incidence: Number of mice … (%)” value (pulmonary fibrosis) is reported as 20% and the “Incidence: Number of mice with pulmonary fibrosis” value (pulmonary fibrosis) is reported as 2/9. The “Grade: Total score of pulmonary fibrosis/total number of samples” value (pulmonary fibrosis) was 2/27, the “Grade: Total score of pulmonary fibrosis/total number of samples (%)” value (pulmonary fibrosis) was 7% and the “Ratio” value (pulmonary fibrosis) was 0.07. For the same compound, the “Antimicrobial potency of Cu-free compound against Mycobacterium smegmatis ATCC 607” value [1] was 14880 mcg potency/mg.
For `Cc1c(N)nc(C(CC(N)=O)NCC(N)C(=O)NCCCNC(C)c2ccccc2)nc1C(=O)NC(C(=O)NC(C)C(O)C(C)C(=O)NC(C(=O)NCCc1nc(-c2nc(C(=O)NCCCN(C)CCCNCCc3ccc(Cl)cc3)cs2)cs1)C(C)O)C(OC1OC(CO)C(O)C(O)C1OC1OC(CO)C(O)C(OC(N)=O)C1O)c1cnc[nH]1` [Compound 43, 3-{N--methyl-N--[3-(2-(p-chlorophenyl)ethyl)aminopropyl]amino}-propylamino-(amido)N--[3-((S)-1'-phenylethyl)aminopropyl]-BLM], the “Antimicrobial potency of Cu-free compound against Bacillus subtilis” value (Bacillus subtilis) was 4267 mcg potency/mg, the “Incidence: Number of mice … (%)” value (pulmonary fibrosis) was 0% and the “Incidence: Number of mice with pulmonary fibrosis” value (pulmonary fibrosis) was 0/1. The “Grade: Total score of pulmonary fibrosis/total number of samples” value (pulmonary fibrosis) was 0/3, the “Grade: Total score of pulmonary fibrosis/total number of samples (%)” value (pulmonary fibrosis) was 0% and the “Ratio” value (pulmonary fibrosis) was 0. The “Antimicrobial potency of Cu-free compound against Mycobacterium smegmatis ATCC 607” value [1] was 15593 mcg potency/mg.
In the case of `Cc1c(N)nc(C(CC(N)=O)NCC(N)C(=O)NCCCN(C)CCCNCCc2ccc(Cl)cc2)nc1C(=O)NC(C(=O)NC(C)C(O)C(C)C(=O)NC(C(=O)NCCc1nc(-c2nc(C(=O)NCCCN(C)CCCNCCc3ccc(Cl)cc3)cs2)cs1)C(C)O)C(OC1OC(CO)C(O)C(O)C1OC1OC(CO)C(O)C(OC(N)=O)C1O)c1cnc[nH]1` (centres unmarked) [Compound 45, 3-{N--methyl-N--[3-(2-(p-chlorophenyl)ethyl)aminopropyl]amino}-propylamino(amido)N--{3-[N-- methyl-N--[3-(2-(p-chlorophenyl)-ethyl)aminopropyl]amino]propyl}-BLM], the “Antimicrobial potency of Cu-free compound against Bacillus subtilis” value (Bacillus subtilis) is reported as 270 mcg potency/mg, the “Incidence: Number of mice … (%)” value (pulmonary fibrosis) is reported as 0% and the “Incidence: Number of mice with pulmonary fibrosis” value (pulmonary fibrosis) is reported as 0/9. For the same compound, the “Grade: Total score of pulmonary fibrosis/total number of samples” value (pulmonary fibrosis) was 0/27, the “Grade: Total score of pulmonary fibrosis/total number of samples (%)” value (pulmonary fibrosis) was 0% and the “Ratio” value (pulmonary fibrosis) was 0. The “Antimicrobial potency of Cu-free compound against Mycobacterium smegmatis ATCC 607” value [1] was 650 mcg potency/mg.
In the case of `Cc1c(N)nc(C(CC(N)=O)NCC(N)C(=O)NCCCNC(C)c2ccccc2)nc1C(=O)NC(C(=O)NC(C)C(O)C(C)C(=O)NC(C(=O)NCCc1nc(-c2nc(C(=O)NCCC[N+](C)(CCCN(Cc3ccccc3)Cc3ccccc3)Cc3ccccc3)cs2)cs1)C(C)O)C(OC1OC(CO)C(O)C(O)C1OC1OC(CO)C(O)C(OC(N)=O)C1O)c1cnc[nH]1` [Compound 47, 3-{N--methyl-N--benzyl-N--[3-(dibenzylamino)propylamino}-propylamino-(amido)N--[3-((S)-1'-phenylethyl)aminopropyl]-BLM], the “Antimicrobial potency of Cu-free compound against Bacillus subtilis” value (Bacillus subtilis) is reported as 180 mcg potency/mg, the “Incidence: Number of mice … (%)” value (pulmonary fibrosis) is reported as 0% and the “Incidence: Number of mice with pulmonary fibrosis” value (pulmonary fibrosis) is reported as 0/8. The “Grade: Total score of pulmonary fibrosis/total number of samples” value (pulmonary fibrosis) was 0/24, the “Grade: Total score of pulmonary fibrosis/total number of samples (%)” value (pulmonary fibrosis) was 0% and the “Ratio” value (pulmonary fibrosis) was 0. The “Antimicrobial potency of Cu-free compound against Mycobacterium smegmatis ATCC 607” value [1] was 5900 mcg potency/mg.
`CCCCCCCCNC(=O)C(N)CNC(CC(N)=O)c1nc(N)c(C)c(C(=O)NC(C(=O)NC(C)C(O)C(C)C(=O)NC(C(=O)NCCc2nc(-c3nc(C(=O)NCCC[N+](C)(CCCN(Cc4ccccc4)Cc4ccccc4)Cc4ccccc4)cs3)cs2)C(C)O)C(OC2OC(CO)C(O)C(O)C2OC2OC(CO)C(O)C(OC(N)=O)C2O)c2cnc[nH]2)n1` (centres unmarked) [Compound 48, 3-{N--methyl-N--benzyl-N--[3-dibenzylamino)proplyamino}-propylamino-(amido)N--[octyl]-BLM] was tested, and the “Antimicrobial potency of Cu-free compound against Bacillus subtilis” value (Bacillus subtilis) was 130 mcg potency/mg, the “Incidence: Number of mice … (%)” value (pulmonary fibrosis) was 0% and the “Incidence: Number of mice with pulmonary fibrosis” value (pulmonary fibrosis) was 0/8. For the same compound, the “Grade: Total score of pulmonary fibrosis/total number of samples” value (pulmonary fibrosis) was 0/24, the “Grade: Total score of pulmonary fibrosis/total number of samples (%)” value (pulmonary fibrosis) was 0% and the “Ratio” value (pulmonary fibrosis) was 0. The “Antimicrobial potency of Cu-free compound against Mycobacterium smegmatis ATCC 607” value [1] was 2580 mcg potency/mg.
For `Cc1c(N)nc(C(CC(N)=O)NCC(N)C(=O)NCCC[N+](C)(CCCN(Cc2ccccc2)Cc2ccccc2)Cc2ccccc2)nc1C(=O)NC(C(=O)NC(C)C(O)C(C)C(=O)NC(C(=O)NCCc1nc(-c2nc(C(=O)NCCC[N+](C)(CCCN(Cc3ccccc3)Cc3ccccc3)Cc3ccccc3)cs2)cs1)C(C)O)C(OC1OC(CO)C(O)C(O)C1OC1OC(CO)C(O)C(OC(N)=O)C1O)c1cnc[nH]1` (centres unmarked) [Compound 49, 3-{N--methyl-N--benzyl-N--[3-(dibenzylamino)propylamino}-propylamino-(amido)N--{3-{N--methyl-N--benzyl-N--[3-dibenzyl-amino)propyl]amino}propyl}-BLM], the “Antimicrobial potency of Cu-free compound against Bacillus subtilis” value (Bacillus subtilis) was 1 mcg potency/mg, the “Incidence: Number of mice … (%)” value (pulmonary fibrosis) was 0% and the “Incidence: Number of mice with pulmonary fibrosis” value (pulmonary fibrosis) was 0/3. The “Grade: Total score of pulmonary fibrosis/total number of samples” value (pulmonary fibrosis) was 0/9, the “Grade: Total score of pulmonary fibrosis/total number of samples (%)” value (pulmonary fibrosis) was 0% and the “Ratio” value (pulmonary fibrosis) was 0. For the same compound, the “Antimicrobial potency of Cu-free compound against Mycobacterium smegmatis ATCC 607” value [1] was 230 mcg potency/mg.
With `Cc1c(N)nc(C(CC(N)=O)NCC(N)C(=O)NCc2ccccc2)nc1C(=O)NC(C(=O)NC(C)C(O)C(C)C(=O)NC(C(=O)NCCc1nc(-c2nc(C(=O)NCCC[N+](C)(CCCN(Cc3ccccc3)Cc3ccccc3)Cc3ccccc3)cs2)cs1)C(C)O)C(OC1OC(CO)C(O)C(O)C1OC1OC(CO)C(O)C(OC(N)=O)C1O)c1cnc[nH]1` (centres unmarked) [Compound 51, 3-{N--methyl-N--benzyl-N--[3-(dibenzylamino)propyl]amino}-propylamino-(amido)N--[benzyl]-BLM] the “Antimicrobial potency of Cu-free compound against Bacillus subtilis” value (Bacillus subtilis) was 410 mcg potency/mg, the “Incidence: Number of mice … (%)” value (pulmonary fibrosis) was 0% and the “Incidence: Number of mice with pulmonary fibrosis” value (pulmonary fibrosis) was 0/8. The “Grade: Total score of pulmonary fibrosis/total number of samples” value (pulmonary fibrosis) was 0/24, the “Grade: Total score of pulmonary fibrosis/total number of samples (%)” value (pulmonary fibrosis) was 0% and the “Ratio” value (pulmonary fibrosis) was 0. For the same compound, the “Antimicrobial potency of Cu-free compound against Mycobacterium smegmatis ATCC 607” value [1] was 24461 mcg potency/mg.
